Results taken from patent US6730666B1, “Pharmaceutical compositions comprising porphyrins and some novel porphyrin derivatives” (Yeda Research and Development Co. Ltd., priority 1998, dated 2004).
Entries after “also recorded” stand apart in the source; their conditions may differ.

Tests used:
FGFR-3 = target: T1, FGFR-3 (Homo sapiens, UniProt P22607); experiment: Binding of 125I-FGF9 to immobilized soluble FGFR-3 (FR-3-AP); settings: FIG. 11
T1 construct: soluble FGFR-3 ectodomain alkaline phosphatase fusion protein (FR-3-AP); made in house; host or cells: NIH 3T3 cells (conditioned medium)
T1 sequence (P22607 23-375 limits assumed): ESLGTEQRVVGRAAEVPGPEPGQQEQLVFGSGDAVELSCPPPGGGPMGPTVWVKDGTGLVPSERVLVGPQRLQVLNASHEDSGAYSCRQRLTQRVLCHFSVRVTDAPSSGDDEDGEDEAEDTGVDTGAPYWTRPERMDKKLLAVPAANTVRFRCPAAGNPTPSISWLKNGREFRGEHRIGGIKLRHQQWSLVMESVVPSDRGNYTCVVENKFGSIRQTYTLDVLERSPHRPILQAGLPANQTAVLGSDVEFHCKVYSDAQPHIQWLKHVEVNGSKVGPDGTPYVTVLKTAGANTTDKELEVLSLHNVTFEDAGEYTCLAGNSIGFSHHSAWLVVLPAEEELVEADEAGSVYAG
Experimental: Incubations were performed in the presence of 100 ng/ml heparin and increasing concentrations of porphyrins. […] Results represent the mean value in one of at least two independent experiments.
(iii) Binding of ^125I-bFGF or ^125I-FGF9 to s luble FGFR-1 or FGFR-3. Conditioned medium from NIH 3T3 cells secreting soluble FRAP or FGFR-3 FR-3-AP, was incubated for 45 min at room temperature with rabbit anti-human placental AP antibodies (generated as described in Ornitz et al, 1991) prebound to agarose-protein A beads Pierce). The FGFR-1 or FGFR-3-coupled beads were washed three times with 1 ml HNTG and incubated with 2 ng/ml of ^125I-FGF, 1 μg/ml of heparin and porphyrin/corrole compound at different concentrations for 1 h at room temperature. High affinity-bound ^125I-bFGF was determined by counting of the samples in a γ-counter.
Thus, the compounds were tested for their capacity to inhibit binding of a soluble FGFR-3 ectodomain alkaline phosphatase fusion protein (FR-3-AP) to FGF-9, utilizing a cell free system, similar to the one described for FGFR-1 in Example 1 above, and measuring the binding of radiolabeled ^125I-FGF-9 to soluble FGFR-3.

FGFR-1 = FGFR-1 (Mus musculus, UniProt P16092); experiment: Binding of 125I-bFGF to CHO cells expressing FGFR-1; settings: read-out: Cellular receptor binding (IC50); binding of FGF to FGFR; Methods section (iv)
Sequence of FGFR-1 (P16092 22-822): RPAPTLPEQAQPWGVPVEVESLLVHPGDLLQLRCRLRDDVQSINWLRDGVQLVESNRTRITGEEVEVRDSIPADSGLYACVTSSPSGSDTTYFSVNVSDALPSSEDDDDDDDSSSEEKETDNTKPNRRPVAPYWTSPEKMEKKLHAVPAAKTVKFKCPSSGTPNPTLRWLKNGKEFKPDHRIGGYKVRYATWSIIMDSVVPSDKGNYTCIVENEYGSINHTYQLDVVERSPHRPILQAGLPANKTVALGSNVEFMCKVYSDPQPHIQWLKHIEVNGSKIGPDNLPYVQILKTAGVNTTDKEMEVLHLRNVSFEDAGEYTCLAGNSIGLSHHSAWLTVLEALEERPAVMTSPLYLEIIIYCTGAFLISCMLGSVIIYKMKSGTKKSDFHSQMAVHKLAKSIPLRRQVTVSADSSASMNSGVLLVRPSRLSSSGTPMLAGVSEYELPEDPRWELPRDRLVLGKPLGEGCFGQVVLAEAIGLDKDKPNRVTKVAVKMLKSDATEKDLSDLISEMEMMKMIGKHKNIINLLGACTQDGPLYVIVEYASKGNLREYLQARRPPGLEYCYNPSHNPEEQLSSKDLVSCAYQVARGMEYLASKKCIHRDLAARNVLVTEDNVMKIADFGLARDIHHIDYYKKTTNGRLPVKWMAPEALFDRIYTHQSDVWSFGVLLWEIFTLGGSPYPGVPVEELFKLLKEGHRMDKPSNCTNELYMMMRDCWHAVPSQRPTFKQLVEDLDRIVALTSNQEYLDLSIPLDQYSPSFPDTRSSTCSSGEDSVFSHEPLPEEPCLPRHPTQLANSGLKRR
Experimental: The binding medium was discarded and the cells were washed once with ice-cold DMEM/BSA and twice with cold PBS (pH 7.5) containing 1.6M NaCl. […] Non-specific binding was determined in the presence of a 100-fold excess of unlabeled bFGF.
First we utilized a cell-free system, measuring the binding of radiolabeled bFGF to a dimeric soluble FGFR-1 fused to alkaline phosphatase. The soluble FRAP was immobilized using an anti-alkaline phosphatase antibody prebound to agarose-protein A beads (see Methods, section (iii)). As a: second experimental model, we used CHO cells deficient in heparan sulfate and genetically engineered to express FGFR-1 (Methods, section (iv)).

soluble FGFR-1 (FRAP) = target: T2, soluble FGFR-1 (FRAP) (Mus musculus, UniProt P16092); experiment: Binding of 125I-bFGF to immobilized soluble FGFR-1 (FRAP), cell-free
T2 sequence (P16092 22-376 limits assumed): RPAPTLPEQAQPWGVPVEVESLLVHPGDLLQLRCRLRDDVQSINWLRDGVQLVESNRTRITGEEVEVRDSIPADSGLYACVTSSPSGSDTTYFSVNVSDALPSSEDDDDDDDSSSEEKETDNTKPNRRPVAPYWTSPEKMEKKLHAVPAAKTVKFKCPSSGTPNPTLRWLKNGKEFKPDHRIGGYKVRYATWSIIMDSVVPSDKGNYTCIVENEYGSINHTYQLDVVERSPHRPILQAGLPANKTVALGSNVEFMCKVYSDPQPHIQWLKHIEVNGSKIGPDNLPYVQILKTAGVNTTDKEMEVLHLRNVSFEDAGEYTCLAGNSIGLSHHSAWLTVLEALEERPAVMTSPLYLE
From the text: First we utilized a cell-free system, measuring the binding of radiolabeled bFGF to a dimeric soluble FGFR-1 fused to alkaline phosphatase. […] As a: second experimental model, we used CHO cells deficient in heparan sulfate and genetically engineered to express FGFR-1 (Methods, section (iv)).

FGF receptor = FGF receptor (Mus musculus, UniProt P16092); experiment: In vitro inhibition of bFGF binding (assay format not stated)
Sequence of FGF receptor (P16092 22-822): as the sequence (P16092 22-822) above

[1] = system: Lewis lung carcinoma (LLC) lung metastasis; experiment: Lewis lung carcinoma lung metastasis model; assay type: in vivo, C57 black mice; design: Inhibitory activity in vivo, LLC tumor model (as % of total inhibition): reference not given here
Experimental: (vii) Lewis lung carcinoma tumor assay. Murine Lewis lung carcinoma (LLC) D122 cells (1×10^6 cells/[…] PBS) were injected into the foot pads of 10-week old C57 black mice (O'Reilly et al, 1994). Twenty five μg/g of body mass of porphyrin or corrole compound dissolved in PBS were injected IP twice a week to the treated group, and tumor size was measured periodically in order to follow primary tumor formation. In order to evaluate inhibition of lung metastasis by porphyrin or corrole compound, the primary tumors were allowed to develop over a period of six weeks to a volume of approximately 8 mm^3; after which the tumors were removed and metastases were allowed to develop for four weeks. During this time the treated group received 25 μg/g of body mass of porphyrin or corrole compound IP twice a week. Subsequently the mice were sacrificed, dissected and the lungs removed and photographed. The extent of lung metastasis was measured by weighing the lungs.
After establishing the capacity of P1 to inhibit primary tumor growth, the capacity of P1 to inhibit lung metastasis formation was measured as described in Methods, section (vi). Mice were injected with LLC cells (200,000 cells per mouse) into the foot pad and primary tumors were allowed to develop over a period of 3 to 4 weeks to a volume of approximately 8 mm^3. Subsequently, primary tumors were removed through amputation and lung metasases were allowed to develop for four weeks before the mice were sacrificed. The extent of lung metastasis at this point was examined by gross morphological examination and by determining the gain in lung weight. […] In order to quantitate the results from these experiments, the lungs from all mice were weighed and evaluated for the extent of metastatic growth.

Relative potency in FGF-9/FGFR-3 soluble receptor assay, in words (FGFR-3)	IC50 (FGFR-1) [nM]	IC50 (soluble FGFR-1 (FRAP); read-out: Soluble receptor binding (IC50), binding of FGF to FGFR, Methods section (iii)) [nM]	Structure (SMILES)	Activity in vitro in words (inhibition of bFGF binding) (FGF receptor)	Inhibition of lung metastasis in LLC model, in words ([1]; 25 μg/g of body mass IP)	Inhibitory activity in vivo, LLC tumor model (as % of total inhibition) ([1]; 25 μg/gram, LLC murine tumor model, lung metastasis) [%]	Inhibition of bFGF binding to immobilized FRAP, in words (soluble FGFR-1 (FRAP); FIG. 8B)
more potent	120	80	C[N+](C)(C)c1c(F)c(F)c(-c2c3nc(c(-c4c(F)c(F)c([N+](C)(C)C)c(F)c4F)c4ccc([nH]4)c(-c4c(F)c(F)c([N+](C)(C)C)c(F)c4F)c4nc(c(-c5c(F)c(F)c([N+](C)(C)C)c(F)c5F)c5ccc2[nH]5)C=C4)C=C3)c(F)c1F.O=S(=O)([O-])C(F)(F)F.O=S(=O)([O-])C(F)(F)F.O=S(=O)([O-])C(F)(F)F.O=S(=O)([O-])C(F)(F)F [Compound P15, 5,10,15,20-Tetrakis(2,3,5,6-tetrafluoro-4-trimethyl-ammonio-phenyl)-21H,23H-methyl-porphine tetra-trifluoromethylsulfonate]				
			C[n+]1ccccc1-c1c(F)c(F)c(-c2c3nc(c(-c4c(F)c(F)c(-c5cccc[n+]5C)c(F)c4F)c4ccc([nH]4)c(-c4c(F)c(F)c(-c5cccc[n+]5C)c(F)c4F)c4nc(c(-c5c(F)c(F)c(-c6cccc[n+]6C)c(F)c5F)c5ccc2[nH]5)C=C4)C=C3)c(F)c1F [Compound P20, 5,10,15,20-Tetrakis[4-(N-methyl-2-pyridylium) 2,3,5,6-tetrafluoro-phenyl]-21H,23H-porphine tetraiodide]	significantly more active than P1	highly active in vivo; also recorded: more active than P1	150	inhibit bFGF binding in vitro
